Experimental findings from patent US5624956A, “Urea derivatives useful as platelet aggregation inhibitors” (The Monsanto Company, priority 1995, dated 1997) are described below.

pIC50: −log10 of the molar value.

One test concerns platelet aggregation (dog platelet-rich plasma). Kind of test: In-vitro platelet aggregation in PRP (ADP-induced, dog). As to conditions: Canis lupus familiaris, ADP 50 um final concentration, at 10^-5 M, read-out: Dog PRP % Inh. It counts as cell-based. As for the experimental part: IN-VITRO PLATELET AGGREGATION IN PRP
Healthy male or female dogs were fasted for 8 hours prior to drawing blood; then 30 ml whole blood was collected using a butterfly needle and 30 cc plastic syringe with 3 ml of 0.129M buffered sodium citrate (3.8%). The syringe was rotated carefully as blood was drawn to mix the citrate. Platelet-rich plasma (PRP) was prepared by centrifugation at 975×g for 3.17 minutes at room temperature allowing the centrifuge to coast to a stop without braking. The PRP was removed from the blood with a plastic pipette and placed in a plastic capped, 50 mL Corning conical sterile centrifuge tube which was held at room temperature. Platelet poor plasma (PPP) was prepared by centrifuging the remaining blood at 2000×g for 15 minutes at room temperature allowing the centrifuge to coast to a stop without braking. The PRP was adjusted with PPP to a count of 2-3×10^8 platelets per mL. 400 uL of the PRP preparation and 50 uL of the compounds solution to be tested or saline were preincubated for […] at 37° C. in a […].). 50 uL of adenosine 5' diphosphate (ADP) (50 um final concentration) was added to the cuvettes and the aggregation was monitored for 1 minute. All compounds are tested in duplicate. Results are calculated as follows: Percent of control=[(maximal OD minus initial OD of compound) divided by (maximal OD minus initial OD of control saline)]×100. The % inhibition=100-(percent of control).
The compounds tested and their median inhibitory concentrations (IC50) are recorded in Table I. IC50 's (dosage at which 50% of platelet aggregation is inhibited) were calculated by linear regression of the dose response curve.
In the case of `CC(C)[C@H](NC(=O)Nc1ccc(C(=N)N)cc1)C(=O)NC(CC(=O)O)c1cccnc1` (single isomer, unassigned) [10 (isomer 1)], the inhibition at 10 µM was 9%.
The same measure, in the same setting: the result for `CN=C(NCCC(=O)NCCC(=O)O)Nc1ccc(C(=N)N)cc1` [Example 6, β-[[3-[[[4-(aminoiminomethyl)phenyl]amino]N-methylcarbonylimide]aminopropanoyl]amino]propanoic acid] reads 5%.

Staying with this test, now noted: Canis lupus familiaris, ADP 50 um final concentration, preincubation at 37° C., aggregation monitored for 1 minute.
Consider `N=C(N)c1ccc(NC(=O)NCC(=O)NC(CC(=O)O)c2cccnc2)cc1` (stereo not shown) [Example 4], for which the pIC50 (as a rule, −log10 of the IC50, conventionally taken in molar units) was 6.59.
Consider `N=C(N)c1ccc(NC(=O)NC(CC(=O)NCCC(=O)O)c2cccnc2)cc1` (stereo not drawn) [Example 12, β-[[3-[[[[4-(aminoiminomethyl)phenyl]amino]-carbonyl]amino](3-pyridine)propanoyl]amino]-propanoic acid], for which the negative-log IC50 (pIC50) is 5.22.
In turn, `N=C(N)c1ccc(NC(=S)NCCC(=O)NCCC(=O)O)cc1` [Example 8, β-[[3-[[[4(aminoiminomethyl)phenyl]amino]-thiocarbonyl]aminopropanoyl]amino]propanoic acid] showed a negative-log IC50 (pIC50) of 5.31.
On the same count and under the same terms, the value for `N=C(N)c1ccc(NC(=O)NCCC(=O)NC(CC(=O)O)c2cccnc2)cc1` (stereo not shown) [Example 2] was 6.48; that for `C[C@H](CNC(=O)Nc1ccc(C(=N)N)cc1)C(=O)NC(CC(=O)O)c1ccc2c(c1)OCO2` (single isomer, unassigned) [14 (isomer 1)] was 5.70.
